Measured values as given in PMC7006784, “The combination of salvianolic acid A with latamoxef completely protects mice against lethal pneumonia caused by methicillin-resistant Staphylococcus aureus” (Emerging Microbes & Infections, 2020).
Marks after values point to notes of the source that are not given here.

Tests used:
SrtA [1] = target: T1, SrtA (Staphylococcus aureus, UniProt Q2FV99); assay: Biolayer interferometry assay; type: binding, S. aureus
T1 construct: The gene encoding SrtA (lacking the N-terminal transmembrane domain (N1–59)); made in house
T1 sequence (Q2FV99 60-206): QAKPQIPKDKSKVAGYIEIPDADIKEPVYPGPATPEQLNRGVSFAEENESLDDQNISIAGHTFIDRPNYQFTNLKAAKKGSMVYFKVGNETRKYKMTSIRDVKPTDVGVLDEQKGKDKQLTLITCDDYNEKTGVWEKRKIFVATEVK
Protocol: The kinetics of the binding of Sal A to SrtA were determined by a biolayer interferometry (BLI) assay using the Octet RED96 system (ForteBio, Inc., Menlo Park, CA) as described previously. Ni-NTA sensors were used to bind the His-tag SrtA protein. The assay buffer used was PBS containing 0.1% bovine serum albumin and 0.02% Tween-20, pH 6.5. Before the assay was performed, the Ni-NTA sensors were pre-wetted in assay buffer for 10 min, and then the Ni-NTA sensors were flushed with buffer for 60 s to generate the baseline. SrtA was immobilized on the surface of the sensor tip by incubating it in […] protein solution for 3600 s. The excess protein was removed by washing the sensor with buffer for 300 s. Subsequently, the sensor was exposed to a cycle of 60 s for the baseline step, 200 s for the association step and 100 s for the dissociation step in different concentrations of Sal A solution (250, 125, 62.5, 31.25 and 15.625 μM). The binding of the sensor to protein without the loading of Sal A served as a control. The data were processed using the double reference subtraction method in Forte Bio analysis software (v6.4).

A92L-SrtA = tested on: T2, A92L-SrtA; assay: Fluorescence quenching assay, A92L-SrtA; type: binding, S. aureus; conditions: fluorescence spectroscopy quenching
T2 construct: The gene encoding SrtA (lacking the N-terminal transmembrane domain (N1–59)); 6xHis (N); made in house
Protocol: (§1) The fluorescence quenching assay was performed as previously described. Briefly, purified SrtA and mutant protein were diluted to 500 ng/ml with PBS. A total of 2.5 ml diluted protein solution was mixed with Sal A at different concentrations ranging from 0 to 4.5 μg. After incubation for 10 min, the fluorescence spectra of the mixed solutions were measured using a fluorescence spectrophotometer (RF5301, Japan). For the fluorescence measurement, the excitation and emission slits were set at 5.0 nm, the excitation wavelength was set at 280 nm, and fluorescence emission spectra in the range of 290–500 nm were scanned; the fluorescence intensity at 340 nm was recorded. All assays were performed in triplicate.

S. aureus biofilm = assay: Biofilm formation assay; type: cell-based; conditions: Staphylococcus aureus, 18 h, read-out: inhibition of biofilm formation compared with the untreated group
Protocol: Overnight cultures of S. aureus were diluted 1:100 in BHI media with or without Sal A to an OD600 of 0.6. Then, 5 µl of the bacterial culture was added to 195 µl BHI media with or without Sal A in a 96-well plate. The plate was incubated at 37°C for 18 h to form a biofilm, which was then quantitated as described previously.

SrtA [2] = target: T1, SrtA; assay: Reversible inhibition assay of SrtA; type: biochemical, S. aureus; conditions: after incubation at 10 × IC50 and dilution
Protocol: To evaluate the reversible inhibition by Sal A of SrtA, 100 μl of purified SrtA was incubated with Sal A at a final concentration equal to 10-fold the IC50 for 1 h at 37°C. Then, 9.9 ml reaction buffer was added. Subsequently, 10 μl of the substrate peptide was added to the 190 μl diluted mixture at a final concentration of 10 μM. The fluorescence intensity was measured using a microplate reader at λex = 350 nm and λem = 495 nm. Triplicate measurements were obtained for each data point, and the data are reported as the mean ± SEM.

S. aureus USA300 = assay: Pneumonia model, survival; type: in vivo, C57BL/6J mice; conditions: mice, 2 × 10^9 CFU i.n.; s.c. 100 mg/kg Sal A and/or 75 mg/kg latamoxef every 12 h, 96 h; PBS control 10%
Protocol: The animal experiments were performed using 6- to 8-week-old female C57BL/6J mice obtained from the Experimental Animal Center of Jilin University and conducted according to the guidelines of the Animal Care and Use Committee of Jilin University. The mouse S. aureus pneumonia model was generated as described previously. Briefly, the mice were anaesthetized with ether and inoculated with 30 μl bacterial resuspension via the left nare. The mice were then held upright to allow the bacteria to be inhaled into the lungs. For the survival assessment, groups of 10 mice were challenged with 2 × 10^9 CFU S. aureus. One hour after intranasal inoculation, the mice were subcutaneously injected with 100 mg/kg of Sal A, 75 mg/kg of latamoxef or 100 mg/kg of Sal A plus 75 mg/kg of latamoxef at 12 h intervals, and survival was assessed for 96 h. For the bacterial load, histopathological, and bronchoalveolar lavage fluid (BALF) experiments, mice were inoculated with 1 × 10^9 CFU S. aureus. The mice were then given a subcutaneous injection of 100 mg/kg Sal A, 75 mg/kg latamoxef or a combination of 100 mg/kg Sal A and 75 mg/kg every 12 h. After 24 h, the left lung of each anaesthetized mouse was aseptically excised and homogenized, and the CFU was determined by serial dilutions. […]

I182A-SrtA = tested on: T3, I182A-SrtA; assay: Fluorescence quenching assay, I182A-SrtA; type: binding, S. aureus; conditions: fluorescence spectroscopy quenching
T3 construct: The gene encoding SrtA (lacking the N-terminal transmembrane domain (N1–59)); 6xHis (N); made in house
Protocol: as §1

R197A-SrtA = tested on: T4, R197A-SrtA; assay: Fluorescence quenching assay, R197A-SrtA; type: binding, S. aureus; conditions: fluorescence spectroscopy quenching
T4 construct: The gene encoding SrtA (lacking the N-terminal transmembrane domain (N1–59)); 6xHis (N); made in house
Protocol: as §1

S. aureus = assay: Anti-S. aureus activity (MIC by broth microdilution, growth curve); type: cell-based
Protocol: The minimum inhibitory concentration (MIC) of Sal A was determined by broth microdilution according to the NCCLS guidelines. Briefly, overnight cultures of S. aureus were diluted 1:100 with fresh Brain Heart Infusion (BHI) medium supplemented with or without 256 μg/ml Sal A and grown at 37°C with shaking. Absorbance readings were obtained at OD600 at different time intervals.

`O=C(/C=C/c1ccc(O)c(O)c1/C=C/c1ccc(O)c(O)c1)O[C@H](Cc1ccc(O)c(O)c1)C(=O)O` [Sal A, (2R)-3-(3,4-Dihydroxyphenyl)-2-[(E)-3-[2-[(E)-2-(3,4-dihydroxyphenyl)ethenyl]-3,4-dihydroxyphenyl]prop-2-enoyl]oxypropanoic acid] was tested. Which Kd (SrtA [1]) did it give?
Its Kd is 21.5 µM.

What about the koff (SrtA [1]) of the same compound?
Its koff is 0.0138 s⁻¹.

What about the kon (SrtA [1]) of the same compound?
The kon was 582 M⁻¹ s⁻¹.

And the KA (A92L-SrtA)?
The KA was 3.78 (1 × 10^4) l/mol.

What about the inhibition at 256 µg/mL (S. aureus biofilm) of the same compound?
Its inhibition at 256 µg/mL is 33.1%.

What about the “SrtA activity recovered in comparison with the control group” value (SrtA [2]) of the same compound?
Its value is 88 ± 3.21%.

And the survival rate (S. aureus USA300)?
The survival rate was 80%.

And the KA (I182A-SrtA)?
Its KA is 1.03 (1 × 10^4) l/mol.

And the KA (R197A-SrtA)?
The KA was 2.22 (1 × 10^4) l/mol.

And the “growth of S. aureus” value (S. aureus; 40-fold the IC50 (up to 200 μM), growth curve with 256 μg/ml)?
The value was “did not inhibit the growth”.

What about the MIC (S. aureus; Staphylococcus aureus, broth microdilution) of the same compound?
Its MIC is > 1020 µg/mL.
